# Key:
# [1] = relative to ^131I-OIH; cited from earlier work
# [2] = Stability of ^18F radiotracer solution (pH 7) by HPLC; assay type: physicochemical; conditions: incubated for 23 hours
# Protocol: Re(CO)3(^18FFEDA) (3) was prepared by reacting the corresponding tosyl precursor, rheniumtricarbonyl-N-ethyltosylate iminodiacetate, Re(CO)3(TsDA), with [18F]fluoride ion (^18F) in anhydrous acetonitrile in the presence of K2CO3 and Kryptofix 222 at 110° C. for 20 min in a chemical processing control unit (CPCU). The resulting radiolabeled product was purified by semi-preparative high performance liquid chromatography (HPLC) using a Waters XTerra Prep RP 18 column (5 jam, 19×100 mm) and eluted with a mobile phase of 0.05 M triethylammonium phosphate (TEAP) buffer (pH=7)/ethanol (80:20 v/v) at a flow rate of 6 mL/min. The solution of the ^18F radiotracer (pH 7) was analyzed by HPLC for stability for up to 23 h.
# erythrocyte = assay: Erythrocyte uptake (RCB) from 10 min blood samples; assay type: in vitro ADME; conditions: rats
# Protocol: (§1) ^99mTc(CO)^3(FEDA) was evaluated in rats using ^131I-OIH as an internal control; urine was analyzed for metabolites. Plasma protein binding (PPB) and erythrocyte uptake (RCB) were determined from the 10 min blood samples. The Re(CO)3 analog was prepared for structural characterization.
# [3] = Stability of ^99mTc tracer at physiological pH / physiological conditions
# plasma protein = assay: Plasma protein binding (PPB) from 10 min blood samples; assay type: in vitro ADME; conditions: rats
# Protocol: as §1
# [4] = Evaluation in rats using ^131I-OIH as internal control (blood clearance, renal excretion, urine metabolites); assay type: in vivo; conditions: for % injected dose in the urine, as % of that of ^131I-OIH: relative to ^131I-OIH internal control
# Protocol: as §1
molecule,measurement,setting,value
"O=C([O-])CN=C([O-])CN=C([O-])CN=C([O-])C[S-].[O-2].[Tc+4] [^99mTc-MAG3, ^99mTc-mercaptoacetyltriglycine]",Clearance compared to ^131I-OIH,[1],50-65%
Re(CO)3(N-(2-^18fluoroethyl)iminodiacetate) [Re(CO)3(^18FFEDA)],Stability by HPLC analysis after incubation,[2],only intact
^99mTc(CO)3(N-(2-fluoroethyl)iminodiacetate) [^99mTc(CO)3(FEDA)],Erythrocyte uptake (RCB),erythrocyte,20%
same,Stability (time stable),[3]; physiological conditions,at least 1 d
same,Stability (time stable),[3]; physiological pH,≥ 24 h
same,Plasma protein binding (PPB),plasma protein,61%
same,Clearance compared with ^131I-OIH,[4]; compared with gold standard ^131I-OIH,comparable to the gold standard
same,Renal excretion,"[4]; rat studies, compared with ^99mTc-MAG3",rapid renal excretion
same,Blood clearance,[4]; rats,rapid blood clearance
same,Specificity for renal excretion,[4]; rats,high specificity for renal excretion
same,Uptake in other organs,[4]; rats,lack of significant uptake in other organs
same,"% injected dose in the urine, as % of that of ^131I-OIH","[4]; rats, 10 min after injection",100%
same,"% injected dose in the urine, as % of that of ^131I-OIH","[4]; rats, 60 min after injection",99%
same,Metabolites in urine (form in which the tracer is excreted),"[4]; rats, urine analyzed for metabolites",secreted intact in the urine

# — US11384106B2, “Metal tricarbonyl complexes comprising substituted iminodiactic acid ligands and uses as radioisotope tracers” (priority 2015, dated 2022)
